Reference: patent US10508085B2, “Compounds and methods for IDO and TDO modulation, and indications therefor” (Plexxikon Inc., priority 2016, dated 2019)

Assays:
[1] = target: T1, Human Indoleamine 2,3-dioxygenase (IDO) (Homo sapiens, UniProt P14902); assay: Human IDO enzymatic assay (kynurenine level); format: biochemical; details: 6 nM IDO, 10 μM L-Trp; geometric mean; read-out: IDO1 GMean: IC50 (μM) (Biochemical Assay)
T1 construct: His tag (N); made in house; host or cells: E. coli
Outline: (§1)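 Reactions were stopped with TCA, converting N-formylkynurenine to kynurenine for quantitation, with IC50 by nonlinear regression. IDO: 6 nM enzyme, 10 μM L-Trp, 20 min RT. TDO: 1 nM enzyme, 350 μM L-Trp, 70 min RT, both in pH 6.5 buffer.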

[2] = target: T2, Human Tryptophan 2,3-dioxygenase (TDO) (Homo sapiens, UniProt P48775); assay: Human TDO enzymatic assay (kynurenine level); format: biochemical; details: 1 nM TDO, 350 μM L-Trp; geometric mean; read-out: TDO GMean: IC50 (μM) (Biochemical Assay)
T2 construct: His tag (N); made in house; host or cells: E. coli
T2 sequence (P48775 whole entry): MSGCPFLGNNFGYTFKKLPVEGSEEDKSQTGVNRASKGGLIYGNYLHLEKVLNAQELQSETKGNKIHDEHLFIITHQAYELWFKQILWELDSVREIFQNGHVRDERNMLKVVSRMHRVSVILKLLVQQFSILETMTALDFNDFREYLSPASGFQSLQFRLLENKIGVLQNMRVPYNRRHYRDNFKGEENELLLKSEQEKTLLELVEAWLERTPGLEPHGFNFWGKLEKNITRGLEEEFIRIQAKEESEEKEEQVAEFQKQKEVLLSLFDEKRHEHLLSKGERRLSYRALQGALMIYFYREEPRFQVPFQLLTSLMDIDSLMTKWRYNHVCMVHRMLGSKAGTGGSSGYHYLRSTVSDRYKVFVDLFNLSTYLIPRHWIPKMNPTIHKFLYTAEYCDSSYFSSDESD
Outline: as §1

[3] = target: T3, human IDO (IDO1-expressing HEK293 cells) (Homo sapiens, UniProt P14902); assay: Cell based kynurenine assay, IDO1-expressing HEK293 cell clones; details: IDO1-expressing HEK293 cells, 24 hours incubation; geometric mean; read-out: HEK293 IDO1 Kynurenine GMean IC50 (μM) (Cellular Assay)
T3 construct: expressed in transfected cells
T3 sequence (P14902 whole entry): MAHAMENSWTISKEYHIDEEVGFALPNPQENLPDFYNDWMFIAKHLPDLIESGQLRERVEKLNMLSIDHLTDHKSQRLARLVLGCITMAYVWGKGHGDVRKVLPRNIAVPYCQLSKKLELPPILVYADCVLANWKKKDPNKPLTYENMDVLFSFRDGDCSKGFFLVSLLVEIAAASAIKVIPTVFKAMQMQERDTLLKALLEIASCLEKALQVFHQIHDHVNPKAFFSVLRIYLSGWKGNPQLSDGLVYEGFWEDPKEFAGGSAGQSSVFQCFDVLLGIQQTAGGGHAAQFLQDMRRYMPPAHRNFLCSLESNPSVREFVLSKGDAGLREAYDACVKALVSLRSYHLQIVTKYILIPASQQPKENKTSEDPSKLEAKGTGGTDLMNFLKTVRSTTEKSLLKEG
Outline: (§2)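 IC50 values come from nonlinear regression of kynurenine reduction in supernatants of human IDO1- or TDO-expressing HEK293 cells incubated 24 h with serially diluted compounds, normalised to cell and media-only controls containing 0.2% DMSO.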

[4] = target: T4, human TDO (TDO-expressing HEK293 cells) (Homo sapiens, UniProt P48775); assay: Cell based kynurenine assay, TDO-expressing HEK293 cell clones; details: TDO-expressing HEK293 cells, 24 hours incubation; geometric mean; read-out: HEK293 TDO Kynurenine GMean IC50 (μM) (Cellular Assay)
T4 construct: expressed in transfected cells
T4 sequence (P48775 whole entry): as the sequence (P48775 whole entry) above
Outline: as §2

T1 sequence (P14902 whole entry): as the sequence (P14902 whole entry) above

SMILES	IC50 [1] [µM]	IC50 [2] [µM]	IC50 [3] [µM]	IC50 [4] [µM]
CC(C)(C(O)c1cc(Cl)cc2cn[nH]c12)[C@H]1C[C@H]2CC[C@@H](C1)N2S(N)(=O)=O (stereo partly drawn) [Compound P-0347, (1R,3r,5S)-3-(1-(5-chloro-1H-indazol-7-yl)-1-hydroxy-2-methylpropan-2-yl)-8-azabicyclo[3.2.1] octane-8-sulfonamide]	0.0001 to 10	0.0001 to 10	0.0001 to 10	0.0001 to 10
COCC(=O)N1CCC(C(F)(F)C(O)c2cc(Cl)cc3cn[nH]c23)CC1 (stereo not shown) [Compound P-0350, 1-(4-(2-(5-chloro-1H-indazol-7-yl)-1,1-difluoro-2-hydroxyethyl)piperidin-1-yl)-2-methoxyethan-1-one]	0.0001 to 10	0.0001 to 10	0.0001 to 10	0.0001 to 10
OC1(c2cc(Cl)cc3[nH]ncc23)CC2(CC2)C1 [Compound P-0352, 5-(6-chloro-1H-indazol-4-yl)spiro[2.3] hexan-5-ol]	10 to 100	0.0001 to 10	> 10	0.0001 to 10
CCCNC(=O)N1CCC(C(C)(C)C(O)c2cc(Cl)cc3cn[nH]c23)CC1 (stereo not shown) [Compound P-0355, 4-(1-(5-chloro-1H-indazol-7-yl)-1-hydroxy-2-methylpropan-2-yl)-N-propylpiperidine-1-carboxamide]	0.0001 to 10	0.0001 to 10	0.0001 to 10	0.0001 to 10
CC(C)(C)NC(=O)N1CCC(C(C)(C)C(O)c2cc(Cl)cc3cn[nH]c23)CC1 (stereo not shown) [Compound P-0356, N-(tert-butyl)-4-(1-(5-chloro-1H-indazol-7-yl)-1-hydroxy-2-methylpropan-2-yl)piperidine-1-carboxamide]	0.0001 to 10	0.0001 to 10	0.0001 to 10	0.0001 to 10
CC(C)(C1CCN(C(=O)Nc2cccc(C#N)c2)CC1)C(O)c1cc(Cl)cc2cn[nH]c12 (stereo not shown) [Compound P-0360, 4-(1-(5-chloro-1H-indazol-7-yl)-1-hydroxy-2-methylpropan-2-yl)-N-(3-cyanophenyl) piperidine-1-carboxamide]	0.0001 to 10	0.0001 to 10	0.0001 to 10	0.0001 to 10
CC(C)(C1CCN(C(=O)c2cccnc2)CC1)C(O)c1cc(Cl)cc2cn[nH]c12 (stereo not shown) [Compound P-0362, (4-(1-(5-chloro-1H-indazol-7-yl)-1-hydroxy-2-methylpropan-2-yl)piperidin-1-yl)(pyridin-3-yl)methanone]	0.0001 to 10	0.0001 to 10	0.0001 to 10	0.0001 to 10
CC(C)(C1CCN(C(=O)c2ccc(C(F)(F)F)nc2)CC1)C(O)c1cc(Cl)cc2cn[nH]c12 (stereo not shown) [Compound P-0363, (4-(1-(5-chloro-1H-indazol-7-yl)-1-hydroxy-2-methylpropan-2-yl)piperidin-1-yl)(6-(trifluoromethyl)pyridin-3-yl)methanone]	0.0001 to 10	0.0001 to 10	0.0001 to 10	0.0001 to 10
CC(C)(C1CCN(C(=O)c2ccccc2F)CC1)C(O)c1cc(Cl)cc2cn[nH]c12 (stereo not shown) [Compound P-0364, (4-(1-(5-chloro-1H-indazol-7-yl)-1-hydroxy-2-methylpropan-2-yl)piperidin-1-yl)(2-fluorophenyl) methanone]	0.0001 to 10	0.0001 to 10	0.0001 to 10	0.0001 to 10
CC(C)(C1CCN(C(=O)c2ccccn2)CC1)C(O)c1cc(Cl)cc2cn[nH]c12 (stereo not shown) [Compound P-0365, (4-(1-(5-chloro-1H-indazol-7-yl)-1-hydroxy-2-methylpropan-2-yl)piperidin-1-yl)(pyridin-2-yl)methanone]	0.0001 to 10	0.0001 to 10	0.0001 to 10	0.0001 to 10
CC(C)(C1CCN(C(=O)c2ccc(N3CCOCC3)nc2)CC1)C(O)c1cc(Cl)cc2cn[nH]c12 (stereo not shown) [Compound P-0367, (4-(1-(5-chloro-1H-indazol-7-yl)-1-hydroxy-2-methylpropan-2-yl)piperidin-1-yl)(6-morpholinopyridin-3-yl)methanone]	0.0001 to 10	0.0001 to 10	0.0001 to 10	0.0001 to 10
CC(C)(C1CCN(C(=O)c2ccccc2Cl)CC1)C(O)c1cc(Cl)cc2cn[nH]c12 (stereo not shown) [Compound P-0368, (4-(1-(5-chloro-1H-indazol-7-yl)-1-hydroxy-2-methylpropan-2-yl)piperidin-1-yl)(2-chlorophenyl) methanone]	0.0001 to 10	0.0001 to 10	0.0001 to 10	0.0001 to 10

Results, then the molecule that gave them:

IC50 [1] [µM]	IC50 [2] [µM]	IC50 [3] [µM]	IC50 [4] [µM]	SMILES
0.0001 to 10	0.0001 to 10	0.0001 to 10	0.0001 to 10	CC(C)(C1CCN(C(=O)Nc2ccc(F)cc2)CC1)[C@H](O)c1cc(Cl)cc2cn[nH]c12 [Compound P-0344, (S)-4-(1-(5-chloro-1H-indazol-7-yl)-1-hydroxy-2-methylpropan-2-yl)-N-(4-fluorophenyl)piperidine-1-carboxamide]
0.0001 to 10	0.0001 to 10	0.0001 to 10	0.0001 to 10	NS(=O)(=O)N1CCC(C(F)(F)C(O)c2cc(Cl)cc3cn[nH]c23)CC1 (stereo not shown) [Compound P-0345, 4-(2-(5-chloro-1H-indazol-7-yl)-1,1-difluoro-2-hydroxyethyl) piperidine-1-sulfonamide]
0.0001 to 10	0.0001 to 10	0.0001 to 10	0.0001 to 10	NC(=O)N1CCC2(CC1)CC(O)(c1cc(Cl)cc3cn[nH]c13)C2 [Compound P-0346, 2-(5-chloro-1H-indazol-7-yl)-2-hydroxy-7-azaspiro[3.5] nonane-7-carboxamide]
0.0001 to 10	0.0001 to 10	> 10	0.0001 to 10	COC12CCC(C(O)c3cc(Cl)cc4[nH]ncc34)(CC1)CC2 (stereo not shown) [Compound P-0348, (6-chloro-1H-indazol-4-yl)(4-methoxybicyclo [2.2.2]octan-1-yl)methanol]
0.0001 to 10	0.0001 to 10	0.0001 to 10	0.0001 to 10	O=C(C1CCC1)N1CCC(C(F)(F)C(O)c2cc(Cl)cc3cn[nH]c23)CC1 (stereo not shown) [Compound P-0349, (4-(2-(5-chloro-1H-indazol-7-yl)-1,1-difluoro-2-hydroxyethyl)piperidin-1-yl)(cyclobutyl) methanone]
0.0001 to 10	0.0001 to 10	0.0001 to 10	0.0001 to 10	CC(C)C(=O)N1CCC(C(F)(F)C(O)c2cc(Cl)cc3cn[nH]c23)CC1 (stereo not shown) [Compound P-0351, 1-(4-(2-(5-chloro-1H-indazol-7-yl)-1,1-difluoro-2-hydroxyethyl)piperidin-1-yl)-2-methylpropan-1-one]
0.0001 to 10	0.0001 to 10	0.0001 to 10	0.0001 to 10	CC(C)(C1CCN(C(=O)NS(=O)(=O)c2ccccc2)CC1)C(O)c1cc(Cl)cc2cn[nH]c12 (stereo not shown) [Compound P-0353, 4-(1-(5-chloro-1H-indazol-7-yl)-1-hydroxy-2-methylpropan-2-yl)-N-(phenylsulfonyl) piperidine-1-carboxamide]
0.0001 to 10	0.0001 to 10	0.0001 to 10	0.0001 to 10	C[C@H](NC(=O)N1CCC(C(C)(C)C(O)c2cc(Cl)cc3cn[nH]c23)CC1)c1ccccc1 (stereo partly drawn) [Compound P-0354, 4-(1-(5-chloro-1H-indazol-7-yl)-1-hydroxy-2-methylpropan-2-yl)-N-((S)-1-phenylethyl) piperidine-1-carboxamide]
0.0001 to 10	0.0001 to 10	0.0001 to 10	0.0001 to 10	COCCCNC(=O)N1CCC(C(C)(C)C(O)c2cc(Cl)cc3cn[nH]c23)CC1 (stereo not shown) [Compound P-0357, 4-(1-(5-chloro-1H-indazol-7-yl)-1-hydroxy-2-methyipropan-2-yl)-N-(3-methoxypropyl) piperidine-1-carboxamide]
0.0001 to 10	0.0001 to 10	0.0001 to 10	0.0001 to 10	CC(C)(C1CCN(C(=O)Nc2cccnc2)CC1)C(O)c1cc(Cl)cc2cn[nH]c12 (stereo not shown) [Compound P-0358, 4-(1-(5-chloro-1H-indazol-7-yl)-1-hydroxy-2-methylpropan-2-yl)-N-(pyridin-3-yl)piperidine-1-carboxamide]
0.0001 to 10	0.0001 to 10	0.0001 to 10	0.0001 to 10	CC(C)(C1CCN(C(=O)Nc2cccc(F)c2)CC1)C(O)c1cc(Cl)cc2cn[nH]c12 (stereo not shown) [Compound P-0359, 4-(1-(5-chloro-1H-indazol-7-yl)-1-hydroxy-2-methylpropan-2-yl)-N-(3-fluorophenyl) piperidine-1-carboxamide]
0.0001 to 10	0.0001 to 10	0.0001 to 10	0.0001 to 10	CC(C)(C1CCN(C(=O)Nc2ccc(Cl)cc2)CC1)C(O)c1cc(Cl)cc2cn[nH]c12 (stereo not shown) [Compound P-0361, 4-(1-(5-chloro-1H-indazol-7-yl)-1-hydroxy-2-methylpropan-2-yl)-N-(4-chlorophenyl) piperidine-1-carboxamide]
0.0001 to 10	0.0001 to 10	0.0001 to 10	0.0001 to 10	CC(C)(C1CCN(C(=O)c2ccccc2C(F)(F)F)CC1)C(O)c1cc(Cl)cc2cn[nH]c12 (stereo not shown) [Compound P-0366, (4-(1-(5-chloro-1H-indazol-7-yl)-1-hydroxy-2-methylpropan-2-yl)piperidin-1-yl)(2-(trifluoromethyl)phenyl)methanone]
